According to patent US20020169111A1, “Reversal of multidrug resistance in human colon carcinoma cells” (American Cyanamid Comany, priority 1998, published 2002):

Key:
Format in all cases: cell-based, human
[1] = tested on: S1 cells; assay: Drug accumulation analysis with [14C] drug; conditions: 90 minutes
Experimental: (§1) To determine the mechanism of resistance, drug resistant and sensitive cells were incubated with radioactive analogues of antitumor agents and cell-associated radioactivity was measured by scintillation counting. Alternatively, surrogates of chemotherapeutic drugs may be used. The surrogate has no antitumor activity itself but interacts with the cancer cell proteins such as P-gp or MRP in a similar manner as an anticancer drug. The surrogate chemotherapeutic drug would have a property such as fluorescence which is useful for determining the drug resistance mechanisms such as efflux.
(§2) Cells were plated in 60 mm dishes (1×10^6 cells per dish) or in 24 well clusters (2 ×10^5 cells per well) and allowed to grow for 1-2 days. […] Drugs used were [^14C]-mitoxantrone (Amersham, 1 or 5 μM; specific activity 66 mCi/mmol) or [^14C]-doxorubicin (Amersham, 0.5 or 3 μM; specific activity 50-62 mCi/mmol ). […] Unbound drug was removed by washing twice in ice-cold phosphate buffered saline (PBS), cells were solubilized in 2 N NaOH at 37° C. for 1-2 hours, and analyzed by scintillation counting. Results were normalized to cell protein content measured by a Lowry assay.
(§3) The cells were then washed, solubilized, and counted in a scintillation counter. Values are mean disintegration per minute per μg protein of triplicate determinations ± standard deviation.

[2] = tested on: S1-B1-20 cells; assay: Drug accumulation analysis with [14C] drug; conditions: 90 minutes
Experimental: as §1, §2, §3

[3] = tested on: S1-M1-3.2 cells; assay: Drug accumulation analysis with [14C] drug; conditions: S1-M1-3.2 cells
Experimental: as §1, §2, §3

[4] = tested on: MCF-7 cells; assay: Dose modifying factor of FTC (SRB, EC50 ratio); conditions: for Dose modifying factor (5 μM FTC): MCF-7 (untransfected, Table 11)
Experimental: Cell survival was estimated after 3 days using the SRB assay. Cell survival was determined by the SRB assay and EC50 values were determined from toxicity curves. The dose modifying factor (DMF) is the ratio of EC50 values obtained in the absence and presence of reversal agent. Maximum DMF values (shown in parentheses) is the ratio of EC50 values of resistant and sensitive cells in the absence of the reversal agent. This value is obtained when resistance is reversed completely, and is the equivalent of the relative resistance.
In order to determine the utility of FTC as a reversal agent in other multidrug resistant cell lines, FTC was tested in two breast cancer cell lines which show a multidrug resistant phenotype with no overexpression of P-gp or MRP.
Cell survival was estimated after 3 days using the SRB assay, and EC50 values were determined from cytotoxicity curves.

`COc1ccc2c3c([nH]c2c1)[C@H](C=C(C)C)N1C(=O)[C@@H]2CCCN2C(=O)[C@@H]1C3` [Fumitremorgin C] was tested, and the “Doxorubicin Drug Accumulation with 1 μM FTC” value (from here on “Doxorubicin Drug Accumulation”) ([1]; [14C] doxorubicin) was 111 ± 15 DPM/μg protein, the “Mitoxantrone Drug Accumulation with 1 μM FTC” value (from here on “Mitoxantrone Drug Accumulation”) ([1]; [14C] mitoxantrone) was 2246 ± 233 DPM/μg protein and the “Doxorubicin Drug Accumulation” value ([2]; [14C] doxorubicin) was 26 ± 1 DPM/μg protein. For the same molecule, the “Mitoxantrone Drug Accumulation” value ([2]; [14C] mitoxantrone) was 1189 ± 53 DPM/μg protein, the “increase of amount of doxorubicin retained” value ([3]; 1 μM FTC) was 3.4 fold and the “increase of amount of mitoxantrone retained” value ([3]; 1 μM FTC) was 2 fold. For the same molecule, the “Doxorubicin Drug Accumulation” value ([3]; [14C] doxorubicin, 90 minutes) was 65 ± 17 DPM/μg protein, the “Mitoxantrone Drug Accumulation” value ([3]; [14C] mitoxantrone, 90 minutes) was 2220 ± 147 DPM/μg protein and the Dose modifying factor ([4]; MCF 7 (row above MCF 7/AdVp), 5 μM FTC with Doxorubicin) was 2.0. It also gave a Dose modifying factor ([4]; MCF 7 (row above MCF 7/AdVp), 5 μM FTC with Mitoxantrone) of 7.5, a Dose modifying factor ([4]; MCF 7 (row above MCF 7/AdVp), 5 μM FTC with Paclitaxel) of 1.0 and a Dose modifying factor ([4]; MCF 7 (row above MCF 7/mtxR), 5 μM FTC with Doxorubicin) of 1.0. The Dose modifying factor ([4]; MCF 7 (row above MCF 7/mtxR), 5 μM FTC with Mitoxantrone) was 1.7, the Dose modifying factor ([4]; MCF 7 (row above MCF 7/mtxR), 5 μM FTC with Paclitaxel) was 0.8 and the “Dose modifying factor (5 μM FTC)” value ([4]; with Doxorubicin) was 1.0. For the same molecule, the “Dose modifying factor (5 μM FTC)” value ([4]; with Mitoxantrone) was 2.5, the “Dose modifying factor (5 μM FTC)” value ([4]; with Paclitaxel) was 0.7 and the “Dose modifying factor (5 μM FTC)” value ([4]; with Topotecan) was 5.6. For the same molecule, the “Reversal by FTC (fold), range over drugs” value ([4]; parental unselected MCF-7 cells) was 0.8-1.7 fold and the “reversal by FTC (fold), mitoxantrone and topotecan” value ([4]; untransfected MCF-7 cells, 5 μM FTC) was 2.5-5.6 fold.
